Test results published in PubChem BioAssay (NCI).
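Interpolation was linear, between the two tested concentrations surrounding the appropriate level; five concentrations were tested over 48 hours in 96-well plates. TGI: total growth inhibition.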

Legend:
Assay in all cases: growth of human tumour cells (NCI), 48 h
IGROV1 ovarian = test system: IGROV1 ovarian
UO-31 renal = test system: UO-31 renal
CAKI-1 renal = test system: CAKI-1 renal
NCI-H522 lung = test system: NCI-H522 lung
U251 CNS = test system: U251 CNS
SK-MEL-5 melanoma = test system: SK-MEL-5 melanoma
HOP-62 NSCLC = test system: HOP-62 NSCLC
LXFL 529 NSCLC = test system: LXFL 529 NSCLC
MALME-3M melanoma = test system: MALME-3M melanoma
HCT-116 colon = test system: HCT-116 colon
SK-MEL-2 melanoma = test system: SK-MEL-2 melanoma
MOLT-4 leukemia = test system: MOLT-4 leukemia
A549 NSCLC = test system: A549 NSCLC
SR leukemia = test system: SR leukemia
XF 498 CNS = test system: XF 498 CNS
ACHN renal = test system: ACHN renal
COLO 205 colon = test system: COLO 205 colon
NCI-H23 lung = test system: NCI-H23 lung
NCI-H460 lung = test system: NCI-H460 lung
UACC-62 melanoma = test system: UACC-62 melanoma
SNB-78 CNS = test system: SNB-78 CNS
SW-620 colon = test system: SW-620 colon
LOX IMVI melanoma = test system: LOX IMVI melanoma
RPMI-8226 leukemia = test system: RPMI-8226 leukemia
DMS 273 small cell lung = test system: DMS 273 small cell lung
EKVX NSCLC = test system: EKVX NSCLC
TK-10 renal = test system: TK-10 renal
SK-OV-3 ovarian = test system: SK-OV-3 ovarian
K-562 leukemia = test system: K-562 leukemia
M14 melanoma = test system: M14 melanoma
HL-60(TB) leukemia = test system: HL-60(TB) leukemia
SNB-75 CNS = test system: SNB-75 CNS
CCRF-CEM leukemia = test system: CCRF-CEM leukemia
SK-MEL-28 melanoma = test system: SK-MEL-28 melanoma
HCC-2998 colon = test system: HCC-2998 colon
OVCAR-8 ovarian = test system: OVCAR-8 ovarian
KM12 colon = test system: KM12 colon
HCT-15 colon = test system: HCT-15 colon
DLD-1 colon = test system: DLD-1 colon
KM20L2 colon = test system: KM20L2 colon
HOP-92 NSCLC = test system: HOP-92 NSCLC
RXF 393 renal = test system: RXF 393 renal
HT29 colon = test system: HT29 colon
SF-539 CNS = test system: SF-539 CNS
786-0 renal = test system: 786-0 renal
OVCAR-5 ovarian = test system: OVCAR-5 ovarian
M19-MEL melanoma = test system: M19-MEL melanoma
SN12C renal = test system: SN12C renal
HOP-18 NSCLC = test system: HOP-18 NSCLC
SNB-19 CNS = test system: SNB-19 CNS
OVCAR-3 ovarian = test system: OVCAR-3 ovarian
SF-295 CNS = test system: SF-295 CNS
NCI-H226 lung = test system: NCI-H226 lung
DMS 114 small cell lung = test system: DMS 114 small cell lung
UACC-257 melanoma = test system: UACC-257 melanoma
SF-268 CNS = test system: SF-268 CNS
OVCAR-4 ovarian = test system: OVCAR-4 ovarian

Measured: TGI

C=C(N=[N+]=[N-])c1cn(C2CC(O)C(CO)O2)c(=O)[nH]c1=O (stereo not drawn)
not listed: UACC-257 melanoma | SF-268 CNS | OVCAR-4 ovarian
> 100 µM: all other assays above

CC(=O)O[C@]12CCC[C@H]1C1(O)C(O)CCC[C@H]12 (stereo partly drawn)
not listed: IGROV1 ovarian | CAKI-1 renal | HCC-2998 colon | DLD-1 colon | HOP-92 NSCLC | SF-539 CNS | OVCAR-5 ovarian | OVCAR-3 ovarian
> 100 µM: all other assays above
